These results are taken from publication PMC5349910, “Discovery of BPR1K871, a quinazoline based, multi-kinase inhibitor for the treatment of AML and solid tumors: Rational design, synthesis, in vitro and in vivo evaluation” (Oncotarget, 2016).

The test system of one data set is MV4-11 tumor xenograft. In words: MV4-11 subcutaneous xenograft model. Format: in vivo. Conditions: nude mice, iv 1, 3 or 10 mg/kg days 1–5 and 8–12; hydrochloride salt; p < 0.05. The protocol: Based on the potent in vitro anti-proliferative activity of BPR1K871, it was planned to investigate the in vivo efficacy. […] Subsequently, based on the PK study, we evaluated the acute toxicity of BPR1K871 in ICR mice (n = 3) by iv administration. […] Next, the antitumor activity of BPR1K871 was evaluated through IV route in MOLM-13 and MV4-11 xenograft models (Figure 5). For this, nude mice were inoculated subcutaneously with MOLM-13 and MV4-11 cells in the left flank. […] For MOLM-13 model, BPR1K871 was injected intravenously at 10 mg/kg daily for 5 days (on days 1–5); also BPR1K871 was intravenously administrated at 3 and 1 mg/kg once a day for two continuous weeks (on days 1–5 and 8–12). For MV4-11 model, BPR1K871 was intravenously administrated at 10, 3 and 1 mg/kg once a day for two continuous weeks (on days 1–5 and 8–12).

The subject of a further data set is CL-97 cells. In words: Anti-proliferative activity, CL-97. The data set is classed as cell-based, human. Conditions: CL97; Human Lung Cancer; supplement values ± SEM; read-out: CL-97 EC50.
In a further data set the test system is Mia-PaCa2 cells. In words: Anti-proliferative activity, Mia-PaCa2. Format: cell-based, human. Conditions: supplement values ± SEM.
The next data set has as its system FLT3^ITD. In words: KINOMEScan, FLT3 ITD. Conditions: 1000 nM.
The next data set addresses T1, FLT3 (Homo sapiens, UniProt P36888).
T1 construct: FLT3 kinase catalytic domain (residues Tyr567-Ser993); made in house; host or cells: Sf9 insect cells (baculovirus, pBac-PAK8-GST-FLT3-KD)
T1 sequence (P36888 567-993): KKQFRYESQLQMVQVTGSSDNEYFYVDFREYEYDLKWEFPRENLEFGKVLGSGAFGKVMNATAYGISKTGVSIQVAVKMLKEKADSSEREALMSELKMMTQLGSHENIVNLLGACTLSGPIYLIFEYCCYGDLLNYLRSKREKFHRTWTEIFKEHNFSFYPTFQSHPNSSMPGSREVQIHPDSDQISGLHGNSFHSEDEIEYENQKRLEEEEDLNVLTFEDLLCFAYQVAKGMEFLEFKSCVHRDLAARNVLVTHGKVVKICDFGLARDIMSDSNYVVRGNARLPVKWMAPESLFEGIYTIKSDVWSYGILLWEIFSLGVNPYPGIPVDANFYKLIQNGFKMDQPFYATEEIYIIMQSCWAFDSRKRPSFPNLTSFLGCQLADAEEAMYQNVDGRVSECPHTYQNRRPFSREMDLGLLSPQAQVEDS
The experiment in a line: FLT3 kinase inhibition assay (Kinase-Glo). Format: biochemical. Conditions: mean of at least two independent experiments, within ±15%. How it is done:
The FLT3 assay was conducted as previously described. Briefly, GST-FLT3-KD^WT containing the FLT3 kinase catalytic domain (residues Tyr567-Ser993) was expressed in Sf9 insect cells transfected with the baculovirus containing pBac-PAK8-GST-FLT3-KD plasmid.
Following incubation, 50 μL Kinase-Glo Plus Reagent (Promega, Madison, WI, USA) was added, and the mixture was incubated at 25°C for 20 min. A 70 μL aliquot of each reaction mixture was transferred to a black microliter plate, and luminescence was measured on a Wallac Vector 1420 multilabel counter (PerkinElmer, Shelton, CT, USA).
(In Kinase-Glo more light means more ATP remaining.)

The next data set concerns MESSA/DX cells. The experiment in a line: Anti-proliferative activity, MESSA/DX. Conditions: Homo sapiens; Doxorubicin Drug Resisted MESSA. The data set is classed as cell-based.
The target in another data set is CYP 2C19 (Homo sapiens, UniProt P33261). In words: CYP inhibition assay, CYP 2C19. The data set is classed as in vitro ADME.
For the next data set, the system named is CL 1-5 cells. The experiment in a line: Anti-proliferative activity, CL 1-5. Conditions: CL1-5; Human Lung Adenocarcinoma. The data set is classed as cell-based.
A further data set concerns Hep 3B cells. In words: Anti-proliferative activity, Hep 3B. The data set is classed as cell-based. Conditions: Hep3B; Human Hepatoma.
The next data set in a line: Aqueous solubility. Format: physicochemical.
The target in the next data set is KIT^V559D,T670I (Homo sapiens, UniProt P10721, T670I/V559D). In words: KINOMEScan, KIT V559D,T670I. Conditions: read-out: KIT^V559D,T670I % control.
The next data set concerns the target ABL1^H396P (Homo sapiens, UniProt P00519, H396P). In words: KINOMEScan, ABL1 H396P. Conditions: read-out: ABL1^H396P % control.
Data set [1] concerns AURKA phosphorylation (pAURKA at residue T288). The experiment in a line: Western blot, AURKA phosphorylation in MV4-11 cells. Conditions: nocodazole 16 h then drug 2.0 h. Format: cell-based, human. The protocol: In order to understand the mode of action of BPR1K871, mechanistic studies in MV4-11 cell line using western blot analysis was carried out. MV4-11 cells were incubated with BPR1K871 in a dose-dependent manner for 2.0 h. Cell lysates were prepared and analyzed by immunoblotting for both FLT3 phosphorylation (pFLT3 at residue Y591) and AURKA phosphorylation (pAURKA at residue T288).
Western blot analysis was conducted as previously described. Primary antibodies against phospho-FLT3 (Tyr591) (#3461) and phospho-AURKA (Thr288) (#3079) were purchased from Cell Signaling Technology. The anti-FLT3 antibody (sc-480) and anti-AURKA antibody (07–648) were purchased from Santa Cruz Biotechnology and Upstate, respectively. The anti-β-actin rabbit polyclonal antibody (GTX110564) was purchased from GeneTex (CA, USA). The secondary antibodies horseradish peroxidase (HRP)-linked goat anti-rabbit IgG (111-035-003) were purchased from Jackson Immuno (West Grove, PA, USA). MV4-11 cells were incubated with compound BPR1K871 for 2.0 h at the indicated concentrations. Cell lysates were prepared and analyzed by immunoblotting. For AURKA analysis, the cell lysates were obtained from MV4-11 cells incubated for 16 h with 40 ngmL^-1 nocodazole, followed by drug treatment for 2.0 h at the indicated concentrations.

A further data set addresses FLT3^N841I (Homo sapiens, UniProt P36888, N841I). The experiment in a line: KINOMEScan, FLT3 N841I. Conditions: read-out: FLT3^N841I % control.

In brackets after ≈: the same amount, converted by molar mass. Entries after “also recorded” stand apart in the source; their conditions may differ.

Chain of CYP 2C19 (P33261 whole entry): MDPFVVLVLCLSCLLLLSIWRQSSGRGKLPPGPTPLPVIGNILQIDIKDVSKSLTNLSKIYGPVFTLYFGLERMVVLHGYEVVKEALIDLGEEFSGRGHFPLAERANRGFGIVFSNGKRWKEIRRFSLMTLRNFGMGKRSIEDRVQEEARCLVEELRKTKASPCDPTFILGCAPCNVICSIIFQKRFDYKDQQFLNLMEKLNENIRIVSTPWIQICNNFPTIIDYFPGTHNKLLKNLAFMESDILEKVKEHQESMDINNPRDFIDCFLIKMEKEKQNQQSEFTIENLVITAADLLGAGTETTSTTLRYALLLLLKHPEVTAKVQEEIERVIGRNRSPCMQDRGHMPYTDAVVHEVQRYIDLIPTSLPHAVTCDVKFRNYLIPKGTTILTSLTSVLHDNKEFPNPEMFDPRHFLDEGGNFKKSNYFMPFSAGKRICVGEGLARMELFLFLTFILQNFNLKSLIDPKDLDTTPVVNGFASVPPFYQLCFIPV
Chain of KIT^V559D,T670I (P10721 26-976 V559D/T670I): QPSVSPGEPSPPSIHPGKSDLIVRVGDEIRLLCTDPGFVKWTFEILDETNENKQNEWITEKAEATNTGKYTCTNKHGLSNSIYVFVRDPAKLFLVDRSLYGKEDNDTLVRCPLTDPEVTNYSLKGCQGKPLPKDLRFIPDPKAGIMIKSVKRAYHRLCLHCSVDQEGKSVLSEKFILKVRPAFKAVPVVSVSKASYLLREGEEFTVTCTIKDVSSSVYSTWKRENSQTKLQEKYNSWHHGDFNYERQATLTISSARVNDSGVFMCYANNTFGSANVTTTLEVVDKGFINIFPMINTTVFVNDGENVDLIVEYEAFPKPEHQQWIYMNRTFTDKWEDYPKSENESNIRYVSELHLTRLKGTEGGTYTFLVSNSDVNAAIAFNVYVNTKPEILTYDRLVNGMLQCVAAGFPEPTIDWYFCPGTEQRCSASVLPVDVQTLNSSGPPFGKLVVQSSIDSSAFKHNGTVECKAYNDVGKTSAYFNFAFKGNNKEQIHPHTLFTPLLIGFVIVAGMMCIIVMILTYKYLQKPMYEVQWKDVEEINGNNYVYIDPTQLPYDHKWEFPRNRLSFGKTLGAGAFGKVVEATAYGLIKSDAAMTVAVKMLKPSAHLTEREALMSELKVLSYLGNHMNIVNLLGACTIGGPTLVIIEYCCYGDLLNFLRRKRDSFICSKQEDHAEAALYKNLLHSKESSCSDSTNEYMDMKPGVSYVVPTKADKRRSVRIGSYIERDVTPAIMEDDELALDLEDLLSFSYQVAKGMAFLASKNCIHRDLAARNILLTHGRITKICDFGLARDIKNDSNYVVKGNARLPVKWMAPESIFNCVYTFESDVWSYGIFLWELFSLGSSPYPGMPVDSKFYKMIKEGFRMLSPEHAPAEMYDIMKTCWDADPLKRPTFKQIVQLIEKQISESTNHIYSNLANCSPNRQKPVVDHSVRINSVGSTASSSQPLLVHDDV
Text for Mia-PaCa2 tumors: For this, COLO205 and Mia-PaCa2 xenograft models were established through inoculating nude mice subcutaneously with corresponding cancer cells. When the tumor size reached approximately 200 mm^3, the hydrochloride salt of BPR1K871 dissolved in the formulation was intravenously administered to suppress the growth of the subcutaneously xenografted tumors.
Nude mice (n = 8–9 per group) were inoculated subcutaneously with Mia-PaCa2 (1 × 10^6 per flank) or COLO205 cells (1 × 10^6 per flank). When the tumor size reached ∼200 mm^3, animals were grouped and treated with BPR1K871 at 20 mg/kg dose in a 2-week treatment period as indicated. […] Tumor volumes were measured and calculated with the formula length × width^2/2 after initiation of treatments. Tumor size and animal body weight were measured twice a week after tumor cell inoculation. The significant difference between drug treatment and vehicle control were analyzed using one-way ANOVA and Student-Newman-Keuls test. The level of statistical significance was set at P<0.05.

As for `CN(C)CCCOc1ccc2c(NCCc3cnc(NC(=O)Nc4cccc(Cl)c4)s3)ncnc2c1` [BPR1K871, 1-(3-Chlorophenyl)-3-(5-(2-((7-(3-(dimethylamino)propoxy)quinazolin-4-yl)amino)ethyl)thiazol-2-yl)urea], the “growth / volume of MV4-11 tumor xenograft vs vehicle” value in the data set with MV4-11 tumor xenograft was “significantly reduced; also recorded: inhibited”. The EC50 in the data set on CL-97 cells was 2890 nM; in the data set on Mia-PaCa2 cells (Homo sapiens, MIA PaCa-2, Human Pancreatic Cancer), < 100 nM; in the data set on Mia-PaCa2 cells (Human Pancreatic Cancer), 94 nM; with MESSA/DX cells it was 6900 nM; with CL 1-5 cells, 1390 nM; in the data set with Hep 3B cells it was 2470 nM. The “TGI ± SD” value with Mia-PaCa2 tumors (Mia-PaCa2, 20 mg/kg iv once a day, days 1–5 and 8–12, day 29, n = 9) is given as 91 ± 10%. The body weight loss in the data set on Mia-PaCa2 tumors (Mia-PaCa2 model, 20 mg/kg iv) is reported as ≤ 15%. Further, the “mortality during the study” value in the data set on Mia-PaCa2 tumors (Mia-PaCa2 model, 20 mg/kg iv) was “no mice died”. Moreover, the “FLT3^ITD % control” value in the data set with FLT3^ITD is on record as < 5.2 % control. The half-maximal inhibitory concentration (IC50) is 19 nM against FLT3 and > 4000 nM at CYP 2C19. Also, the solubility in the data set “Aqueous solubility” (in water) amounted to 0.124 µg/mL (≈ 0.236 µM). In the data set “Aqueous solubility” (pH ≤ 5.2 buffer solution vs water), the “improvement of aqueous solubility in pH ≤ 5.2 buffer solution compared to water” value is listed as “up to 4000 fold”. Further, the figures for the remaining binding at 1 µM on KIT^V559D,T670I, on ABL1^H396P and at FLT3^N841I were < 4%, < 4.4% and < 5.2%, respectively. Also, the “concentration that completely inhibited formation of pAURKA (Thr288)” value in data set [1] came to 100 nM.

Broadly, the EC50 is the concentration that produces a half-maximal response. By IC50 is commonly meant the concentration needed to halve the response being measured. A high value points to a need for much substance. As a reminder, the solubility is the concentration that dissolves in the medium under given conditions.
